Legend:
[1] = tested on: HAS3 mRNA; experiment: Hyaluronic acid synthase 3 (HAS3) mRNA expression promotive action test; format: cell-based, human; settings: 25 μmol/L; NHEK, 24 hours; A/B×100, corrected with GAPDH
Protocol: Normal human neonatal epidermal keratinocytes (NHEK) were precultured using normal human epidermal keratinocyte growth medium (KGM), and the cells were collected by a trypsin treatment. The collected cells were diluted with KGM to a cell density of 15×10^4 cells/mL, then seeded with 2 mL portions in a 6-well plate (30×10^4 cells/well), and cultured overnight under conditions of 37° C. and 5% CO2. After culturing, the medium was replaced with normal human epidermal keratinocyte basal medium (KBM, the above KGM without addition of growth additives (hEGF, BPE, insulin, antibacterial agents, hydrocortisone)), and culturing was further performed for 24 hours.
After culturing for 24 hours, the medium was removed, and 2 mL of the test sample (Sample 1, see Table 10 below for final concentration) dissolved in KBM was added to each well, and culturing was performed under conditions of 37° C. and 5% CO2 for 24 hours. As a control, culturing was performed in the same manner using KBM to which no sample was added. After culturing, the medium was removed, total RNA was extracted using ISOGEN II (available from NIPPON GENE CO., LTD.), each RNA amount was measured using a spectrophotometer, and the total RNA was prepared so as to be 150 ng/μL.
For HAS3 and GAPDH as an internal standard, the expression levels of mRNA were measured using the above total RNA as a template. […]

[2] = tested on: Mouse macrophage cells (RAW264.7); experiment: Prostaglandin E2 (PGE2) production suppressive action test in mouse macrophages; format: cell-based; settings: RAW264.7, LPS 1 μg/mL, 16 hours
Protocol: Mouse macrophage cells (RAW264.7) were cultured using Dulbecco's modified Eagle's medium (DMEM) containing 10% FBS, and then the cells were collected using a cell scraper. The collected cells were diluted with DMEM containing 10% FBS to a concentration of 2.0×10^5 cells/mL, then seeded with 100 μL per well in a 96-well plate, and cultured for 18 hours.
After the culturing was completed, the medium was replaced with a medium containing 500 μmol/L aspirin and cultured for 4 hours in order to acetylate and inactivate the already existing COX-1 and the small amount of COX-2 expressed. After that, the cells were washed three times with PBS(−) buffer solution, 100 μL of the test sample (Sample 1, see Table 29 below for final concentration) dissolved in DMEM containing DMSO at a final concentration of 0.5% and 10% FBS was added to each well, then 100 μL of lipopolysaccharide (LPS) (available from DIFCO, E. coli 0111; B4) dissolved at a final concentration of 1 μg/mL in DMEM containing 10% FBS, and the cells were cultured for 16 hours. As a control, culturing was performed in the same manner using DMEM containing DMSO at a final concentration of 0.5% and 10% FBS to which no sample was added. After the culturing was completed, the amount of prostaglandin E2 in the culture supernatant of each well was determined using PGE2 EIA Kit (available from Cayman Chemical). From the obtained results, the PGE2 production suppression rate (%) was calculated using the following equation.
Terms in the equation represent the following respective ones. • A: PGE2 amount with test sample addition and with LPS stimulation • B: PGE2 amount without sample addition and with LPS stimulation • C: PGE2 amount without sample addition and without LPS stimulation

O=C(O)CCc1ccc(O)c(O)c1 [Sample 1, 3,4-Dihydroxyhydrocinnamic acid]
HAS3 mRNA expression promotion rate [1]: 173. 5%
PGE2 production suppression rate ([2]; 31.25 μmol/L): 17.9%
PGE2 production suppression rate ([2]; 125 μmol/L): 17.7%
PGE2 production suppression rate ([2]; 500 μmol/L): 41.3%

Reference: US20240252456A1, “ORAL COMPOSITION, SKIN COSMETIC AND HAIR COSMETIC” (MARUZEN PHARMACEUTICALS CO., LTD., priority 2021, published 2024)
